Each compound was assayed on AM24 protein (assay: Evaluation of the nitrile hydratase activity of AM24 protein (2): substrate specificity). Settings: activity defined as 100 when acrylonitrile is the substrate; 0.2% (v/v) nitrile solution, 25° C., 5 minutes, pH 7.0; amide measured by HPLC.
Assay type: biochemical, Rhizobium sp. MCI2643
Method: One volume of the AM24 protein solution (its absorbance was 0.1 at 280 nm) and 4 volumes of 0.5M phosphate buffer, pH 7.0 were mixed together, to which were added 90 volumes of a 0.2% (v/v) solution of a nitrile compound for reaction at 25° C. for 5 minutes. After the reaction, 5 volumes of 1N HCl were added to terminate the reaction, and the resulting solution was then applied to an ODS column for HPLC, to measure the resulting amide compound. As the nitrile compound as the substrate, use was made of acrylonitrile, propionitrile, n-butyronitrile, isobutyronitrile, acetonitrile, chloroacetonitrile, malonamidenitrile, methacrylonitrile, 3-cyanopyridine, benzonitrile, and chrotononitrile.
The relative activity of each substrate is shown in Table 1, provided that the activity is defined as 100 when acrylonitrile is used as a reaction substrate.

Row | Structure (SMILES) | Specific activity (%) (relative activity of each substrate)
1 | C=CC#N [Acrylonitrile] | 100
2 | N#CCCl [Chloroacetonitrile] | 671
3 | CC#N [Acetonitrile] | 47
4 | N#CCC(N)=O [Malonamidenitrile] | 143
5 | N#Cc1cccnc1 [3-Cyanopyridine] | 9
6 | CC(C)C#N [Isobutyronitrile] | 28
7 | CCC#N [Propionitrile] | 59
8 | N#Cc1ccccc1 [Benzonitrile] | 251
9 | CC=CC#N [Chrotononitrile] | 34
10 | C=C(C)C#N [Methacrylonitrile] | 143
11 | CCCC#N [n-Butyronitrile] | 152

The compounds below were run on transformant containing the pEAM24X1 (assay: Conversion of a nitrile into an amide using the transformant containing pEAM24X1). Settings: transformant cultured with CoCl2 and IPTG; aqueous 7% acrylonitrile solution, 30° C., 1 hour; HPLC.
Assay type: cell-based, Escherichia coli DH5 α
Method: The transformant containing the pEAM24X1 obtained in Example 7 was cultured overnight at 27° C. in 10 ml of an LB culture medium (containing 50 μg/ml Ampicillin). […] The strain were centrifuged and harvested, washed once in physiological saline, and suspended in 1.6 ml of a phosphate buffer (pH 7.0, 0.1M). 0.32 ml of the suspension was sampled, followed by mixing with 80 μl of an aqueous 7% acrylonitrile solution for reaction at 30° C. for 1 hour. After the termination of the reaction by addition of HCl as described before, the acrylamide and acrylonitrile concentrations in the reaction solution were determined by HPLC.
Thus cobalt is essential for nitrile hydratase activity.

Row | Structure (SMILES) | conversion of acrylonitrile to acrylamide
12 | C=CC#N [Acrylonitrile] | complete

Same assay, conditions: transformant harboring pEAM24X1 cultured in a culture medium without cobalt

Row | Structure (SMILES) | acrylamide in the reaction solution after termination of the reaction
13 | C=CC#N [Acrylonitrile] | no acrylamide was detected

Reference: patent publication US5314819A, “Protein having nitrile hydratase activity obtained from rhizobium, gene encoding the same, and a method for producing amides from nitriles via a transformant containing the gene” (Mitsubishi Kasei Corporation, priority 1992, dated 1994)
